# Data: patent US9776972B2, “Pyrazole derivatives as arginine methyltransferase inhibitors and uses thereof” (priority 2013, dated 2017)
# Where a name gives a salt, the structure may show the parent alone.
# Molecular target: T1, human PRMT6 (Homo sapiens, UniProt Q96LA8)
# T1 construct: Flag-PRMT6-His; made in house; host or cells: HEK 293F cells (BacMam baculovirus)
# Assay: PRMT6 Biochemical Assay (3H-SAM Flashplate, peptide substrate)
# Conditions: Biochemical IC50 PRMT6, single experiment or average of multiple experiments
# Method in brief: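 Methylation of a biotin-tagged H4 (36-50) peptide by ³H-SAM was quantified by streptavidin Flashplate capture and scintillation counts (dpm/cpm). Before SAM/peptide addition, Flag-PRMT6-His was preincubated with compound for 30 min at room temperature in Bicine buffer, pH 7.6.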
# T1 sequence (Q96LA8 with tags, fused parts or gaps): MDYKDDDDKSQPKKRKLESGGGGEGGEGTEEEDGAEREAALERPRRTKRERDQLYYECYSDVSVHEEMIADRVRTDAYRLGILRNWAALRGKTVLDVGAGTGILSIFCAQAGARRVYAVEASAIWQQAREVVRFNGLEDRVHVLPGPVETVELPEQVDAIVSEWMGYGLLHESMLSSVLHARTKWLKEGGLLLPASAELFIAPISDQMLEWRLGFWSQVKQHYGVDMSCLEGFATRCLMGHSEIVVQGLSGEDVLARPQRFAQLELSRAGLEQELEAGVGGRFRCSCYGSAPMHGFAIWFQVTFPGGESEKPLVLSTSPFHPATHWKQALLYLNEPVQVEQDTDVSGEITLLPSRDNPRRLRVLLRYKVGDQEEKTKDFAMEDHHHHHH
row,Compound,IC50
1,"CNCCN(C)Cc1c[nH]nc1-c1cc(C(C)C)cc(C(C)C)c1 [Compound 229, N^1-((3-(3,5-diisopropylphenyl)-1H-pyrazol-4-yl)methyl)-N^1,N^2-dimethylethane-1,2-diamine]",201 nM
2,CNCCN(C)Cc1c[nH]nc1-c1ccc(Oc2cccc(OC)c2)cc1 [Compound 230],2.19 nM
3,CNCCN(C)Cc1c[nH]nc1-c1ccc(Oc2cccc(F)c2)cc1 [Compound 231],2.97 nM
4,CNCCN(C)Cc1c[nH]nc1-c1ccc(Oc2ccccc2)c(C(=O)NC)c1 [Compound 232],16.6 nM
5,CNCCN(C)Cc1c[nH]nc1-c1ccc(Oc2ccccc2)c(C(=O)N(C)C)c1 [Compound 233],18.2 nM
6,CC(C)Cc1cccc(-c2n[nH]cc2CN(C)CCN)c1 [Compound 235],176 nM
7,CNCCN(C)Cc1c[nH]nc1-c1ccc(OCCCO)cc1 [Compound 236],14.7 nM
8,CNCCN(C)Cc1c[nH]nc1-c1ccc(Oc2ccccc2F)cc1 [Compound 237],2.13 nM
9,CNCCN(C)Cc1n[nH]cc1-c1ccc(Oc2cccc(OC)c2)cc1 [Compound 239],1.01 nM
10,CNCCN(C)Cc1n[nH]cc1-c1ccc(Oc2ccccc2)c(C(=O)NC)c1 [Compound 240],14.6 nM
11,CNCCN(C)Cc1n[nH]cc1-c1ccc(Oc2ccccc2)c(C(=O)N(C)C)c1 [Compound 241],34.1 nM
12,CNCCN(C)Cc1n[nH]cc1-c1cc(C(C)C)cc(C(C)C)c1 [Compound 242],> 1000 nM
13,"CNCCN(C)Cc1cn(C)nc1-c1ccc(OC(C)C)cc1 [Compound 243, N^1-((3-(4-isopropoxyphenyl)-1-methyl-1H-pyrazol-4-yl)methyl)-N1,N2-dimethylethane-1,2-diamine]",286 nM
14,CNCCN(C)Cc1cn(Cc2ccncc2)nc1-c1ccc(OC(C)C)cc1 [Compound 245],224 nM
15,CNCCN(C)Cc1cn(Cc2cccnc2)nc1-c1ccc(OC(C)C)cc1 [Compound 246],318 nM
16,CNCCN(C)Cc1cn(Cc2ccccn2)nc1-c1ccc(OC(C)C)cc1 [Compound 247],805 nM
17,CCn1ncc(CN(C)CCNC)c1-c1ccc(OC(C)C)cc1 [Compound 252],102 nM
18,CNCCN(C)Cc1cnn(C2CCCC2)c1-c1ccc(OC(C)C)cc1 [Compound 255],75.1 nM

# The next lines start with the values.
row,IC50,Compound
1,831 nM,CNCCN(C)Cc1cn(CC(=O)OC)nc1-c1ccc(OC(C)C)cc1 [Compound 248]
2,2370 nM,CNCCN(C)Cc1cn(CC(N)=O)nc1-c1ccc(OC(C)C)cc1 [Compound 251]
3,748 nM,"CNCCN(C)Cc1cn(CCOC)nc1-c1ccc(OC(C)C)cc1 [Compound 253, N1-((3-(4-isopropoxyphenyl)-1-(2-methoxyethyl)-1H-pyrazol-4-yl)methyl)-N1,N2-dimethylethane-1,2-diamine hydrochloride]"
4,201 nM,"CNCCN(C)Cc1cn(C2CCC2)nc1-c1ccc(OC(C)C)cc1 [Compound 254, N1-((1-cyclobutyl-3-(4-isopropoxyphenyl)-1H-pyrazol-4-yl)methyl)-N1,N2-dimethylethane-1,2-diamine hydrochloride]"
5,213 nM,C=C(C)C(=O)Nc1cccc(-c2[nH]ncc2CN(C)CCNC)c1 [Compound 257]
6,173 nM,C=CC(=O)Nc1cccc(-c2[nH]ncc2CN(C)CCNC)c1 [Compound 258]
7,0.8 nM,CN(CCN)Cc1c[nH]nc1-c1ccc(Oc2ccccc2F)cc1 [Compound 259]
8,243 nM,CNCCN(C)Cc1c[nH]nc1-c1cc(OC(C)C)cc(C(C)C)c1 [Compound 260]
9,2.44 nM,CNCCN(C)Cc1c[nH]nc1-c1ccc(Oc2cccc(C#N)c2)cc1 [Compound 261]
10,1.46 nM,CNCCN(C)Cc1c[nH]nc1-c1ccc(Oc2cccc(C(C)C)c2)cc1 [Compound 262]
11,15.7 nM,"CNCCN(C)Cc1c[nH]nc1-c1cc(Cl)c(OC(C)C)c(Cl)c1 [Compound 265, N^1-((3-(3,5-dichloro-4-isopropoxyphenyl)-1H-pyrazol-4-yl)methyl)-N^1,N^2-dimethylethane-1,2-diamine]"
12,33 nM,CNCCN(C)Cc1nn(C)cc1-c1ccc(OCCCOC)cc1 [Compound 266]
